# From a melting point compilation (Tetko et al.; mined from patent text by program, amines drawn as free bases though some values may be those of a salt)
# Non-standard residues stand in square brackets, D forms with d. Residues, ends and D or L forms follow the SMILES beside them. ξ: configuration not given here. *: point of attachment. ξPhe(4-NO2) = NC(Cc1ccc([N+](=O)[O-])cc1)C(=O)O; Boc = CC(C)(C)OC(=O)*; OBn = c1ccc(CO*)cc1
row,melting point [°C],Structure (SMILES)
1,194 to 195,CNC(=NS(C)(=O)=O)NCCCCCc1nc(N)nc(N)n1
2,369,Cc1cc(C)cc(-c2c(O)c3ccc(Cl)cc3[nH]c2=O)c1
3,212 to 214,COc1nc2cc(Cl)c(Cl)c(N3NN=CC3CCO)c2nc1OC (stereo not given)
4,93 to 95,COc1cc(OC)c([N+](=O)[O-])cc1C(=O)CCCCCl
5,219,COP(=O)(OC)c1cc(O)c2c(=O)cc(-c3ccccc3)oc2c1
6,48 to 49,CC(C)(C)OC(=O)NCCCCCCCBr
7,189 to 191,C=S1C(=NC(F)(F)F)C(=NC(F)(F)F)N(c2ccccc2)C1C(C)=O (stereo not given)
8,232 to 234,Nc1nnc(-c2ccc(CN3CCCCCC3)s2)o1
9,152 to 153,CCOP(=O)(Cc1ccc(Oc2sc(C(N)=O)c3c2-c2c(cnn2CC)CC3)cc1)OCC
10,205,CC1C(=NO)SCC(=O)N1C (stereo not given)
11,126 to 127,CC(C)(C)c1ccc(OCCCN2CCC(C(O)(c3ccc(F)cc3)c3ccc(F)cc3)CC2)cc1
12,93 to 95,O=C(c1ccc(Cl)cc1)c1noc(CS(=O)c2ccccc2)n1 (stereo not given)
13,69 to 71,CCCCOc1ccc2c(c1)C(N(CCCO)S(C)(=O)=O)CC(C)(C)O2 (stereo not given)
14,193 to 194,O=C(O)Cc1c(-c2ccccc2)nn(-c2ccc(Cl)cc2)c1-c1ccccc1
15,198 to 199,CCOCc1nc2c(N)nc3cc(Br)ccc3c2n1CC1CCN(C(=O)N2CCOCC2)CC1
16,83 to 85,CCOC(=O)CN(C)C(=S)CCc1nc2c(F)c(F)cc(F)c2s1
17,136,CSc1nn(C(=O)NC2CCCCC2)c(=O)n1C
18,162 to 164,O=C1CCC(C(=O)O)(c2ccc(Cl)cc2)CC1

row,melting point [°C],Structure (SMILES)
1,155 to 157,CC(C)n1nc(Br)nc1O
2,181 to 183,CCc1ncnc(O)c1[N+](=O)[O-]
3,115 to 118,CC(C)(C)OC(=O)NC(Cc1ccc([N+](=O)[O-])cc1)C(=O)NCC(=O)OCc1ccccc1 (stereo not given) (Boc-[ξPhe(4-NO2)]-Gly-OBn)
4,135 to 137,COc1ccc(NN=C(Sc2ccc(F)cc2)C(C)=O)cc1
5,171 to 172,CCN1CCCC1CNC(=O)c1cc(NS(C)(=O)=O)ccc1OC (stereo not given)
6,193 to 194,Cc1ccc(OCC(=O)O)c(C(=O)NCc2cccc([N+](=O)[O-])c2)c1
7,141 to 143,O=C(Nc1ccc(Cl)c(Cl)c1)OCCCC(=O)c1ccccc1
8,124 to 126,COC(=O)c1nc2cccc(Br)c2c(O)c1C(=O)OC
9,50,CNNC(=O)OC(C)(C)C
10,126 to 127,CC(C)(C)CC(C)(C)Nc1nc(NC(C)(C)CC(C)(C)C)nc(N2CC3CCC(CC3)C2)n1
11,296 to 297,C[C@H](NC(=O)c1c[nH]c2ncc(-c3cnn(C)c3)nc12)C(C)(C)C
12,140 to 142,CCCCCCOc1ccc(-c2nc(-c3ccc(OCCCCCC)cc3O)nc(-c3c(C)cc(C)cc3C)n2)c(O)c1
13,71 to 72,CCCCCCc1c(C(C)C)nc(C(C)C)c(CO)c1-c1ccccc1
14,88 to 90,CCOCC1OC(n2c(Cl)nc3cc(Cl)c(Cl)cc32)C(O)C1O (stereo not given)
15,206,COc1cccc(-c2cccc(OC3SCC(O)C(O)C3O)c2)n1 (stereo not given)
16,175 to 177,COc1ccc(C(=O)NCCCCn2cnc3c(N)nc4ccccc4c32)c(OC)n1
17,117,C=CCC(C(=O)O)c1ccc(C(=O)c2cccs2)cc1 (stereo not given)
18,55,CCCCCc1ccc(C(O)(c2c(C)cc(C)c(C)c2OC)C(C)C)cc1 (stereo not given)

row,Structure (SMILES),melting point [°C]
1,CCCc1c(C)c(NC(=O)CC(C)(C)C)c(C)c2c1OCC2c1ccc(C(C)C)cc1 (stereo not given),145 to 148
2,CN1Cc2c(N)ncn2-c2ccccc2C1=O,202 to 204
3,FC(F)(F)c1cccc(C2=CCN(CCc3ccc(-c4ccccc4)cc3)CC2)c1,114 to 116
4,COC(=O)c1ccc2c(c1)COc1ccc(/C=C/c3ccc4c(n3)CCCC4)cc1C2SCCC(=O)O (stereo not given),121 to 123
